Laboratory results as given in patent US20180177890A1, “LIGAND-CYTOTOXIC DRUG CONJUGATE, PREPARATION METHOD THEREOF, AND USE THEREOF” (priority 2015, published 2018).
Numbered stars: 1 amine (or outer) side, 2 acyl side, 3 side chain; on linkers, the order of the positions; unused ones are H or OH. Square brackets hold non-standard residues; d marks the D form. Peptide text beside a SMILES is read from it. X1 = CO[C@H]([C@@H](C)C(=O)[*:2])[C@@H]1C[C@@H]2C[C@@H]2N1[*:1]; X3 = CO[C@H]([C@@H](C)C(=O)[*:2])[C@@H]1CC[C@H](C)N1[*:1]; X5 = CO[C@H]([C@@H](C)C(=O)[*:2])[C@@H]1C[C@H](F)CN1[*:1]; Dolaproine = CO[C@@H]([C@@H]1CCCN1)[C@@H](C)C(=O)O; Dil = CC[C@H](C)[C@H](NC)[C@@H](CC(=O)O)OC; Phe(2-Cl) = N[C@@H](Cc1ccccc1Cl)C(=O)O; Phe(4-F) = N[C@@H](Cc1ccc(F)cc1)C(=O)O; Phe(2-F) = N[C@@H](Cc1ccccc1F)C(=O)O; NMeV = CN[C@H](C(=O)O)C(C)C

How the values were obtained:
A549 tumor cells = assay: In vitro tumor cell proliferation inhibition test (CCK-8), A549; assay type: cell-based; conditions: Homo sapiens, A549, 76 hours incubation
Procedure: (§1) The objective of this experiment is to test the in vitro inhibition effect of the formula (D) according to the present invention on the proliferation of HepG2 tumor cells (human hepatocellular carcinoma cells, Chinese Academy of Sciences cell bank, No. #TCHu 72) and A549 tumor cells (human lung adenocarcinoma, Chinese Academy of Sciences cell bank, No. #TCHu150). The cells were treated with different concentrations of the compound in vitro. After 76 hours incubation, the cell proliferation was detected by CCK-8 reagent (Cell Counting Kit-8, Dojindo, No. CK04), and the activity of the compound in vitro was evaluated according to the IC50 value.
(§2) The following is an example of a method for in vitro proliferation inhibition test of HepG2 cells for the purpose of exemplifying the test of the compounds according to the present invention for the proliferation inhibitory activity on tumor cells in vitro. This method is also applicable to, but not limited to, the in vitro proliferation inhibition tests on other tumor cells.
(§3) The compound was dissolved with DMSO (dimethylsulfoxide, Shanghai Titan Technology Co., Ltd.) to prepare a storage solution having an initial concentration of 10 mM.
(§4) 10 μl of 10 mM compound was added to the wells of the first column of a U-shaped bottom 96-well plate (sample plate 1), and 90 μl of DMSO was added to each compound sample well of the first column, i.e., the stock solution was diluted 10 times as the starting point. Then, 3-fold gradient dilutions were performed, with each compound concentration […]. The diluent was DMSO solution. 60 μl of 100% DMSO was added to 12th column and 20 μl of 1 mM positive drug control was added to 11th column.
(§5) In a new U-shaped bottom 96-well plate (sample plate 2), each sample from the sample plate 1 was diluted 20 times with the complete medium. Then, in another new U-shaped bottom 96-well plate (sample plate 3), each well sample from the sample plate 2 was subjected to a final 10-fold dilution.
(§6) After the cell pre-culture was completed, the 96-well cell culture plate was removed and the supernatant was discarded. Each sample dilution in the 96-well sample plate 3 was successively added to a 96-well cell culture plate at 100 μl/well. Each compound sample was tested in duplicate at each concentration. […] After completion of the loading operation, the 96-well cell culture plate was incubated at 37° C. for about 76 hours in a 5% CO2 incubator.
(§7) The 96-well cell culture plate was taken and CCK-8 was added to each well at […]. The cell culture plate was gently pat and mixed for more than 10 times and incubated at 37° C. for 2 hours in a 5% CO2 incubator.
(§8) The 96-well cell culture plate was taken and placed in a microplate reader (PerkinElmer, VICTOR 3) and the absorbance at 450 nm was measured using the microplate reader.
In accordance with the above procedure, the inhibition activity of the compound according to the present invention on the proliferation of A549 tumor cells in vitro was tested. The cell culture medium was also DMEM/F12.
(§9) Data was analyzed with Microsoft Excel and Graphpad Prism 5.

HepG2 tumor cells = assay: In vitro tumor cell proliferation inhibition test (CCK-8), HepG2; assay type: cell-based; conditions: Homo sapiens, HepG2, 76 hours incubation
Procedure: as §1, §2
HepG2 cells in logarithmic growth phase were washed with PBS (phosphate buffer, ThermoFisher) once, and added with 2-3 ml trypsin (0.25% trypsin-EDTA (1×), Gibico, Life Technologies) to digest for 2-3 min. Then, 10-15 ml of cell culture medium (DMEM/F12 medium, Invitrogen; 10% (v/v)) was added after the cells were completely digested. The digested HepG2 cells were eluted, and centrifuged at 1000 rpm for 3 min. The supernatant was discarded, and then 10-20 ml of cell culture medium were added to resuspend the cells to prepare a single cell suspension.
The HepG2 single cell suspension was mixed and the cell density was adjusted to 6×10^4 cells/ml with cell culture medium. The density-adjusted cell suspension was mixed uniformly and added to a 96-well cell culture plate at 100 μl/well. The plates were incubated in a 5% CO2 incubator at 37° C. for 18-20 hours.
as §3, §4, §5, §6, §7, §8, §9

SMILES | IC50 (A549 tumor cells) [nM] | IC50 (HepG2 tumor cells) [nM]
CC[C@H](C)[C@@H]([C@@H](CC(=O)N1[C@H]2C[C@H]2C[C@H]1[C@H](OC)[C@@H](C)C(=O)N[C@@H](Cc1ccccc1)C(=O)O)OC)N(C)C(=O)[C@@H](NC(=O)[C@@H](NC)C(C)C)C(C)C [Compound 1, (S)-2-((2R,3R)-3-((1S,3S,5S)-2-((3R,4S,5S)-4-((S)—N,3-dimethyl-2-((S)-3-methyl-2-(methylamino)butanamido)butanamido)-3-methoxy-5-methylheptanoyl)-2-azabicyclo[3.1.0]hexan-3-yl)-3-methoxy-2-methylpropanamido)-3-phenylpropanoic acid] (H-[NMeV]V[Dil][X1]F-OH) | 12.8 | 8.6
CC[C@H](C)[C@@H]([C@@H](CC(=O)N1[C@H]2C[C@H]2C[C@H]1[C@H](OC)[C@@H](C)C(=O)N[C@@H](Cc1ccccc1Cl)C(=O)O)OC)N(C)C(=O)[C@@H](NC(=O)[C@@H](NC)C(C)C)C(C)C [Compound 2, (S)-3-(2-chlorophenyl)-2-((2R,3R)-3-((1S,3S,5S)-2-((3R,4S,5S)-4-((S)—N,3-dimethyl-2-((S)-3-methyl-2-(methylamino)butanamido)butanamido)-3-methoxy-5-methylheptanoyl)-2-azabicyclo[3.1.0]hexan-3-yl)-3-methoxy-2-methylpropanamido)propanoic acid] (H-[NMeV]V[Dil][X1][Phe(2-Cl)]-OH) | 2.33 | 4.12
CC[C@H](C)[C@@H]([C@@H](CC(=O)N1[C@@H](C)CC[C@H]1[C@H](OC)[C@@H](C)C(=O)N[C@@H](Cc1ccccc1)C(=O)O)OC)N(C)C(=O)[C@@H](NC(=O)[C@@H](NC)C(C)C)C(C)C [Compound 3, (S)-2-((2R,3R)-3-((2S,5S)-1-((3R,4S,5S)-4-((S)—N,3-dimethyl-2-((S)-3-methyl-2-(methylamino)butanamido)butanamido)-3-methoxy-5-methylheptanoyl)-5-methylpyrrolidin-2-yl)-3-methoxy-2-methylpropanamido)-3-phenylpropanoic acid] (H-[NMeV]V[Dil][X3]F-OH) | 16.2 | 9.33
CC[C@H](C)[C@@H]([C@@H](CC(=O)N1[C@H]2C[C@H]2C[C@H]1[C@H](OC)[C@@H](C)C(=O)N[C@@H](Cc1ccccc1F)C(=O)O)OC)N(C)C(=O)[C@@H](NC(=O)[C@@H](NC)C(C)C)C(C)C [Compound 7, (S)-2-((2R,3R)-3-((1S,3S,5S)-2-((3R,4S,5S)-4-((S)—N,3-dimethyl-2-((S)-3-methyl-2-(methylamino)butanamido)butanamido)-3-methoxy-5-methylheptanoyl)-2-azabicyclo[3.1.0]hexan-3-yl)-3-methoxy-2-methylpropanamido)-3-(2-fluorophenyl)propanoic acid] (H-[NMeV]V[Dil][X1][Phe(2-F)]-OH) | 776 | 283
CC[C@H](C)[C@@H]([C@@H](CC(=O)N1C[C@@H](F)C[C@H]1[C@H](OC)[C@@H](C)C(=O)N[C@@H](Cc1ccccc1)C(=O)O)OC)N(C)C(=O)[C@@H](NC(=O)[C@@H](NC)C(C)C)C(C)C [Compound 44, (S)-2-((2R,3R)-3-((2S,4S)-1-((3R,4S,5S)-4-((S)—N,3-dimethyl-2-((S)-3-methyl-2-(methylamino)butanamido)butanamido)-3-methoxy-5-methylheptanoyl)-4-fluoropyrrolidin-2-yl)-3-methoxy-2-methylpropanamido)-3-phenylpropanoic acid] (H-[NMeV]V[Dil][X5]F-OH) | 179 | –
CC[C@H](C)[C@@H]([C@@H](CC(=O)N1CCC[C@H]1[C@H](OC)[C@@H](C)C(=O)N[C@@H](Cc1ccc(F)cc1)C(=O)O)OC)N(C)C(=O)[C@@H](NC(=O)[C@@H](NC)C(C)C)C(C)C [Compound 46, (S)-2-((2R,3R)-3-((S)-1-((3R,4S,5S)-4-((S)—N,3-dimethyl-2-((S)-3-methyl-2-(methylamino)butanamido)butanamido)-3-methoxy-5-methylheptanoyl)pyrrolidin-2-yl)-3-methoxy-2-methylpropanamido)-3-(4-fluorophenyl)propanoic acid] (H-[NMeV]V[Dil][Dolaproine][Phe(4-F)]-OH) | 106 | –
